Results: patent publication US5049673A, “Fluorescent indicator dyes for calcium working at long wavelengths” (The Regents of the University of California, priority 1987, dated 1991)
Like-named read-outs stand apart in the source and are kept apart here.

Experiments:
[1] = pH 7.60, 0.12 M ionic strength, 20°; read-out: Apparent dissociation constant for the Mg^2+ complex (including monoprotonated form); cited from earlier work
[2] = pH 7.03, 100 mM KCl, 20° C; read-out: Apparent dissociation constant for the Ca^2+ complex; cited from earlier work
[3] = Calibration of [Ca2+] increases produced by UV photolysis of nitr-5 or nitr-7; conditions: results not shown
Description: The most obvious difference between the present chelators and the previous tetracarboxylate Ca^2+ chelators is in their wavelengths of fluorescence excitation and emission. The new indicators' similarity to fluoresceins and rhodamines make them optically compatible with almost any fluorometer, fluorescence microscope, or flow cytometer already used for immunofluorescence detection. The fluorescein analogs fluo-1, -2, and -3 can be excited by incandescent illumination or the prominent 488 nm line of an […]. The rhodamine analogs rhod-1 rhod-2 are suited to incandescent illumination, the 531 nm line of a krypton-ion laser, or the 546 nm line of a mercury arc. By contrast, the earlier dyes quin-2 and fura-2 are best excited at 340-350 or 380-390 nm from a xenon lamp. Indo-1 does best with 350-360 nm from a xenon arc or the low-power UV lines of argon or krypton lasers. Optical elements for these UV wavelengths are preferably reflective or are made from quartz, glasses with enhanced UV transmission, or very thin ordinary glass. Plastics or thick (>1 mm) ordinary glass elements generally give too much absorbance or autofluorescence or both. By contrast, even these cheap optical materials are compatible with blue or green excitation.

[4] = room temperature, 0.1 M KCl, no added Mg^2+; read-out: Ca^2+ dissociation constant (Kd) used for FIG. 6; cited from earlier work

Row | Compound | Kd [1] [µM] | Kd [2] [µM] | Effect of excitation wavelengths on "caged" calcium [3] | Kd [4] [µM]
1 | O=C(O)CN(CCOCCOCCN(CC(=O)O)CC(=O)O)CC(=O)O [EGTA, ethylene glycol bis(-beta-aminoethyl ether)-N,N,N',N'-tetraacetic acid] | 6000 | 0.327 | – | –
2 | Cc1ccc(N(CC(=O)O)CC(=O)O)c(OCCOc2cc3cc(-c4ncc(C(=O)O)o4)oc3cc2N(CC(=O)O)CC(=O)O)c1 [fura-2] | – | – | the excitation wavelengths began to photolyze the "caged" calcium | 0.135
